Data published in patent US5840684A, “Glycopeptide antibiotic derivatives” (Eli Lilly and Company, priority 1995, dated 1998).
In brackets after ≈: the same amount, converted by molar mass.

What was measured:
[1] = test system: Streptococcus pneumoniae; assay: mouse protection, experimentally-induced infection; assay type: in vivo; conditions: mice infected with Streptococcus pneumoniae, two doses
[2] = test system: vancomycin-resistant enterococci; assay: broth micro-dilution, mean geometric MIC; assay type: cell-based, Enterococcus faecium and Enterococcus faecalis; conditions: enterococci, 24-hour incubation
[3] = test system: Staphylococcus aureus 446; assay: broth micro-dilution MIC; assay type: cell-based
Protocol: (§1) The MIC's were determined using a standard broth micro-dilution assay.

[4] = test system: Staphylococcus aureus X778; assay: broth micro-dilution MIC; assay type: cell-based
Protocol: as §1

[5] = test system: Staphylococcus aureus 489; assay: broth micro-dilution MIC; assay type: cell-based
Protocol: as §1

[6] = test system: Staphylococcus aureus SA1199; assay: broth micro-dilution MIC; assay type: cell-based
Protocol: as §1

[7] = test system: Streptococcus pyogenes C203; assay: broth micro-dilution MIC; assay type: cell-based
Protocol: as §1

[8] = test system: Entercoccus faecium 276; assay: broth micro-dilution MIC; assay type: cell-based
Protocol: as §1

[9] = test system: Staphylococcus aureus X400; assay: broth micro-dilution MIC; assay type: cell-based
Protocol: as §1

[10] = test system: Staphylococcus aureus 447; assay: broth micro-dilution MIC; assay type: cell-based
Protocol: as §1

[11] = test system: Staphylococcus aureus SA1199A; assay: broth micro-dilution MIC; assay type: cell-based
Protocol: as §1

[12] = test system: Staphylococcus aureus 491; assay: broth micro-dilution MIC; assay type: cell-based
Protocol: as §1

[13] = test system: Entercoccus faecium 180-1; assay: broth micro-dilution MIC; assay type: cell-based
Protocol: as §1

[14] = test system: Streptococcus pyogenes; assay: mouse protection, experimentally-induced infection; assay type: in vivo; conditions: mice infected with Streptococcus pyogenes, two doses
[15] = test system: Staphylococcus haemolyticus 105; assay: broth micro-dilution MIC; assay type: cell-based
Protocol: (§2) The formula I compounds have in vitro and in vivo activity against Gram-positive pathogenic bacteria. The MIC's were determined using a standard broth micro-dilution assay.

[16] = test system: Entercoccus faecium 2041; assay: broth micro-dilution MIC; assay type: cell-based; conditions: Entercoccus faecium 2041
Protocol: as §2

[17] = test system: Staphylococcus haemolyticus 415; assay: broth micro-dilution MIC; assay type: cell-based
Protocol: as §2

[18] = test system: Entercoccus faecium 180; assay: broth micro-dilution MIC; assay type: cell-based; conditions: Entercoccus faecium 180
Protocol: as §2

[19] = test system: Enterococcus gallinarum 245; assay: broth micro-dilution MIC; assay type: cell-based; conditions: Enterococcus gallinarum 245
Protocol: as §2

[20] = test system: Streptococcus pneumoniae P1; assay: broth micro-dilution MIC; assay type: cell-based
Protocol: as §2

[21] = test system: Pediococcus acidilacti; assay: agar dilution MIC, lactic acid bacteria; assay type: cell-based; conditions: Pediococcus acidilacti (mean of 10), brain-heart infusion agar
[22] = test system: Leuconostoc lactis; assay: agar dilution MIC, lactic acid bacteria; assay type: cell-based; conditions: Leuconostoc lactis (mean of 2), brain-heart infusion agar
[23] = test system: Leuconostoc pseudomesenteroides; assay: agar dilution MIC, lactic acid bacteria; assay type: cell-based; conditions: brain-heart infusion agar
[24] = test system: Pediococcus pentosaceus; assay: agar dilution MIC, lactic acid bacteria; assay type: cell-based; conditions: Pediococcus pentosaceus (mean of 2), brain-heart infusion agar
[25] = test system: Stapylococcus aureus; assay: mouse protection, experimentally-induced infection; assay type: in vivo; conditions: mice infected with Stapylococcus aureus, two doses
[26] = test system: Leuconostoc citreum; assay: agar dilution MIC, lactic acid bacteria; assay type: cell-based; conditions: brain-heart infusion agar
[27] = test system: Staphylococcus aureus S13E; assay type: cell-based
Protocol: as §1

[28] = test system: vancomycin-susceptible enterococci; assay: broth micro-dilution, mean geometric MIC; assay type: cell-based, Enterococcus faecium and Enterococcus faecalis; conditions: enterococci, 24-hour incubation
[29] = test system: Leuconostoc mesenteroides; assay: agar dilution MIC, lactic acid bacteria; assay type: cell-based; conditions: Leuconostoc mesenteroides (mean of 4), brain-heart infusion agar
[30] = test system: Staphylococcus epidermidis 270; assay: broth micro-dilution MIC; assay type: cell-based
Protocol: as §2

[31] = test system: Staphylococcus aureus SA1199B; assay type: cell-based
Protocol: as §1

| Compound | ED50 [1] | mean geometric MIC, Vancomycin Resistant Strains [2] | MIC [4] | MIC [5] | MIC [6] | MIC [7] | MIC [8] | MIC [9] | MIC [10] | MIC [11] | MIC [13] | MIC [15] | MIC [16] | MIC [17] | MIC [18] | MIC [20] | MIC [21] | MIC [26] | MIC [27] | mean geometric MIC, Vancomycin Sensitive Strains [28] | also measured |
| --- | --- | --- | --- | --- | --- | --- | --- | --- | --- | --- | --- | --- | --- | --- | --- | --- | --- | --- | --- | --- | --- |
| CNC(CC(C)C)C(=O)NC1C(=O)NC(CC(N)=O)C(=O)NC2C(=O)NC3C(=O)NC(C(=O)NC(C(=O)O)c4cc(O)cc(O)c4-c4cc3ccc4O)C(OC3CC(C)(N)C(O)C(C)O3)c3ccc(c(Cl)c3)Oc3cc2cc(c3OC2OC(CO)C(O)C(O)C2OC2CC(C)(NCc3ccc4ccccc4c3)C(O)C(C)O2)Oc2ccc(cc2Cl)C1O (stereo not drawn) [Compound 1] | 0.025 mg/kg/2 | 0.25 µg/mL | 0.125 µg/mL (≈ 0.0721 µM) | ≤ 0.06 µg/mL | ≤ 0.06 µg/mL | ≤ 0.06 µg/mL | ≤ 0.06 µg/mL | ≤ 0.06 µg/mL | ≤ 0.06 µg/mL | ≤ 0.06 µg/mL | ≤ 0.06 µg/mL | 4 µg/mL (≈ 2.31 µM) | 0.125 µg/mL (≈ 0.0721 µM) | 4 µg/mL (≈ 2.31 µM) | 0.5 µg/mL (≈ 0.289 µM) | ≤ 0.06 µg/mL | 18 µg/mL (≈ 10.4 µM) | > 128 µg/mL | 0.125 µg/mL (≈ 0.0721 µM) | 0.0061 µg/mL | MIC [3]: ≤ 0.06 µg/mL; MIC [12]: 2 µg/mL (≈ 1.15 µM); ED50 [14]: 0.052 mg/kg/2; MIC [19]: 4 µg/mL (≈ 2.31 µM); MIC [22]: 23 µg/mL (≈ 13.3 µM); MIC [23]: > 128 µg/mL; MIC [24]: 23 µg/mL (≈ 13.3 µM); ED50 [25]: 0.086 mg/kg/2 |
| CNC(CC(C)C)C(=O)NC1C(=O)NC(CC(N)=O)C(=O)NC2C(=O)NC3C(=O)NC(C(=O)NC(C(=O)O)c4cc(O)cc(O)c4-c4cc3ccc4O)C(OC3CC(C)(N)C(O)C(C)O3)c3ccc(c(Cl)c3)Oc3cc2cc(c3OC2OC(CO)C(O)C(O)C2OC2CC(C)(NCc3cc(OCc4ccccc4)ccc3OC)C(O)C(C)O2)Oc2ccc(cc2Cl)C1O (stereo not drawn) [Compound 51] | 0.036 mg/kg/2 | 0.84 µg/mL | 0.5 µg/mL (≈ 0.275 µM) | ≤ 0.06 µg/mL | 0.5 µg/mL (≈ 0.275 µM) |  | ≤ 0.06 µg/mL | ≤ 0.06 µg/mL | 0.5 µg/mL (≈ 0.275 µM) | ≤ 0.06 µg/mL | ≤ 0.06 µg/mL | 0.5 µg/mL (≈ 0.275 µM) | ≤ 0.06 µg/mL | 1 µg/mL (≈ 0.55 µM) | 0.5 µg/mL (≈ 0.275 µM) | ≤ 0.06 µg/mL | 87 µg/mL (≈ 47.8 µM) | > 128 µg/mL | 0.5 µg/mL (≈ 0.275 µM) | 0.22 µg/mL | MIC [29]: 76 µg/mL (≈ 41.8 µM); ED50 [14]: 0.057 mg/kg/2; MIC [30]: 0.5 µg/mL (≈ 0.275 µM); MIC [23]: > 128 µg/mL; MIC [24]: 91 µg/mL (≈ 50 µM); ED50 [25]: 0.16 mg/kg/2; MIC [31]: 1 µg/mL (≈ 0.55 µM) |
| CNC(CC(C)C)C(=O)NC1C(=O)NC(CC(N)=O)C(=O)NC2C(=O)NC3C(=O)NC(C(=O)NC(C(=O)O)c4cc(O)cc(O)c4-c4cc3ccc4O)C(OC3CC(C)(N)C(O)C(C)O3)c3ccc(c(Cl)c3)Oc3cc2cc(c3OC2OC(CO)C(O)C(O)C2OC2CC(C)(NCc3ccc(OCc4ccccc4)c(OC)c3)C(O)C(C)O2)Oc2ccc(cc2Cl)C1O (stereo not drawn) [Compound 52] | 0.074 mg/kg/2 | 0.59 µg/mL | 0.5 µg/mL (≈ 0.275 µM) | 0.5 µg/mL (≈ 0.275 µM) | 2 µg/mL (≈ 1.1 µM) | ≤ 0.06 µg/mL | 0.125 µg/mL (≈ 0.0687 µM) | ≤ 0.06 µg/mL | ≤ 0.06 µg/mL | ≤ 0.06 µg/mL | ≤ 0.06 µg/mL | 0.5 µg/mL (≈ 0.275 µM) | 0.5 µg/mL (≈ 0.275 µM) | 1 µg/mL (≈ 0.55 µM) | 2 µg/mL (≈ 1.1 µM) | ≤ 0.06 µg/mL | 55 µg/mL (≈ 30.2 µM) | > 128 µg/mL | 0.5 µg/mL (≈ 0.275 µM) | 0.11 µg/mL | MIC [29]: 76 µg/mL (≈ 41.8 µM); MIC [3]: ≤ 0.06 µg/mL; ED50 [14]: 0.046 mg/kg/2; MIC [19]: 1 µg/mL (≈ 0.55 µM); MIC [30]: 0.5 µg/mL (≈ 0.275 µM); ED50 [25]: 0.052 mg/kg/2; MIC [31]: 2 µg/mL (≈ 1.1 µM) |
| CNC(CC(C)C)C(=O)NC1C(=O)NC(CC(N)=O)C(=O)NC2C(=O)NC3C(=O)NC(C(=O)NC(C(=O)O)c4cc(O)cc(O)c4-c4cc3ccc4O)C(OC3CC(C)(N)C(O)C(C)O3)c3ccc(c(Cl)c3)Oc3cc2cc(c3OC2OC(CO)C(O)C(O)C2OC2CC(C)(NCc3cccc4c3OCO4)C(O)C(C)O2)Oc2ccc(cc2Cl)C1O (stereo not drawn) [Compound 58] |  | 5.7 µg/mL | ≤ 0.06 µg/mL | ≤ 0.06 µg/mL | ≤ 0.06 µg/mL | ≤ 0.06 µg/mL | 0.5 µg/mL (≈ 0.29 µM) | ≤ 0.06 µg/mL | 1 µg/mL (≈ 0.579 µM) | ≤ 0.06 µg/mL |  | 4 µg/mL (≈ 2.32 µM) | 0.5 µg/mL (≈ 0.29 µM) | 8 µg/mL (≈ 4.63 µM) | 8 µg/mL (≈ 4.63 µM) | ≤ 0.06 µg/mL | 55 µg/mL (≈ 31.9 µM) | 128 µg/mL (≈ 74.1 µM) | ≤ 0.06 µg/mL | 0.76 µg/mL | MIC [19]: 0.4 µg/mL (≈ 0.232 µM); MIC [30]: 4 µg/mL (≈ 2.32 µM); MIC [23]: 128 µg/mL (≈ 74.1 µM) |
